These molecules were tested on HCV 1b genotype replicon (assay: HCV replicon drug screening assay (quantitative RT-PCR or luciferase), genotype 1b). Conditions: Hepatitis C virus; HCV 1b genotype replicon; quantitative RT-PCR or luciferase assay; read-out: Genotype-1b replicon EC50 Range.
Assay type: cell-based
From the text: HCV replicon cell lines (kindly provided by R. Bartenschlager) isolated from colonies as described by Lohman et. al. (Lohman et al. (1999) Science 285: 110-113, expressly incorporated by reference in its entirety) and used for all experiments. The HCV replicon has the nucleic acid sequence set forth in EMBL Accession No.: AJ242651, the coding sequence of which is from nucleotides 1801 to 8406.
The coding sequence of the published HCV replicon was synthesized and subsequently assembled in a modified plasmid pBR322 (Promega, Madison, Wis.) using standard molecular biology techniques. One replicon cell line (“SGR 11-7”) stably expresses HCV replicon RNA which consists of (i) the HCV 5′UTR fused to the first 12 amino acids of the capsid protein, (ii) the neomycin phosphotransferase gene (neo), (iii) the IRES from encephalomyocarditis virus (EMCV), and (iv) HCV NS2 to NS5B genes and the HCV 3′UTR. Another replicon cell line (“Huh-luc/neo-ET”) described by Vrolijk et. al. (Vrolijk et. al. (2003) Journal of Virological Methods 110:201-209, expressly incorporated by reference in its entirety) stably expresses HCV replicon RNA which consists of (i) the HCV 5′UTR fused to the first 12 amino acids of the capsid protein, (ii) the firefly luciferase reporter gene, (iii) the ubiquitin gene, (iv) the neomycin phosphotransferase gene (neo), (v) the IRES from encephalomyocarditis virus (EMCV), and (vi) HCV NS3 to NS5B genes that harbor cell culture adaptive mutations (E1202G, T12801, K1846T) and the HCV 3′UTR.
These cell lines are maintained at 37° C., 5% CO2, 100% relative humidity in DMEM (Cat#11965-084, Invitrogen), with 10% fetal calf serum (“FCS”, Invitrogen), 1% non-essential amino acids (Invitrogen), 1% of Glutamax (Invitrogen), 1% of 100× penicillin/streptomycin (Cat#15140-122, Invitrogen) and Geneticin (Cat#10131-027, Invitrogen) at 0.75 mg/ml or 0.5 mg/ml for 11-7 and Huh-luc/neo-ET cells, respectively.
EC50 values of single agent compounds and combinations were determined by HCV RNA detection using quantitative RT-PCR, according to the manufacturer's instructions, with a TAQMAN® One-Step RT-PCR Master Mix Reagents Kit (Cat#AB 4309169, Applied Biosystems) on an ABI Model 7500 thermocycler. The TaqMan primers to use for detecting and quantifying HCV RNA are 5′-GCTGCGGCCTGTCGAGCT-3′ (SEQ ID NO: 1), 5′-CAAGGTCGTCTCCGCATAC-3′ (SEQ ID NO: 2) and the probe 5′-FAM-[…]-BHQ-3′ (SEQ ID NO: 3) obtained from Integrated DNA Technologies. HCV RNA is normalized to GAPDH RNA levels in drug-treated cells, which is detected and quantified using the Human GAPDH Endogenous Control Mix (Applied Biosystems, AB 4310884E). Total cellular RNA is purified from 96-well plates using the RNAqueous 96 kit (Ambion, Cat#AM1812). Chemical agent cytotoxicity was evaluated using an MTS assay according to the manufacturer's directions (Promega).
The compounds described herein can be effective against the HCV 1b genotype. It should also be understood that the compounds can inhibit multiple genotypes of HCV. In one embodiment, compounds of Formula (I) are active against the 1a, 1b, 2a, 2b, 3a, 4a, and 5a genotypes. […] The EC50 ranges were classified into the following groups: A>10 nM; B 1-10 nM; C<1 nM. The potential cytotoxicities of each agent were analyzed in parallel by MTS assay and are greater than 3 uM for all agents.

Compound | EC50
CC(C)[C@H](Nc1ncccn1)C(=O)N1CCC[C@H]1c1nc2cc(-c3ccc(-c4ccc5[nH]c([C@@H]6CCCN6C(=O)[C@@H](Nc6ncccn6)C(C)C)nc5c4)cc3)ccc2[nH]1 [Compound 19] | < 1 nM
COC(=O)N[C@H](C(=O)N1CCC[C@H]1c1nc2cc(-c3ccc4cc(-c5ccc6[nH]c([C@@H]7CCCN7C(=O)[C@@H](NC(=O)OC)C(C)C)nc6c5)ccc4c3)ccc2[nH]1)C(C)C [Compound 20] | < 1 nM
COC(=O)N[C@H](C(=O)N1CCC[C@H]1c1nc2cc(-c3ccc4nc(-c5ccc6[nH]c([C@@H]7CCCN7C(=O)[C@@H](NC(=O)OC)C(C)C)nc6c5)ncc4c3)ccc2[nH]1)C(C)C [Compound 21] | < 1 nM
O=C(Cc1ccccn1)N1CCC[C@H]1c1nc2cc(-c3ccc(-c4ccc5[nH]c([C@@H]6CCCN6C(=O)Cc6ccccn6)nc5c4)cc3)ccc2[nH]1 [Compound 22] | < 1 nM
COCCOC(=O)N[C@H](C(=O)N1CCC[C@H]1c1nc2cc(-c3ccc(-c4ccc5[nH]c([C@@H]6CCCN6C(=O)[C@@H](NC(=O)OCCOC)C(C)C)nc5c4)cc3)ccc2[nH]1)C(C)C [Compound 23] | > 10 nM
COC(=O)N[C@H](C(=O)N1CCC[C@H]1c1nc2cc(-c3ccc(-c4ccc5[nH]c([C@@H]6CCCN6C(=O)[C@@H](NC(=O)OC)C6CCCC6)nc5c4)cc3)ccc2[nH]1)C1CCCC1 [Compound 24] | < 1 nM
COC(=O)N[C@@H](CC(C)C)C(=O)N1CCC[C@H]1c1nc2cc(-c3ccc(-c4ccc5[nH]c([C@@H]6CCCN6C(=O)[C@H](CC(C)C)NC(=O)OC)nc5c4)cc3)ccc2[nH]1 [Compound 25] | < 1 nM
CC[C@H](C)[C@H](NC(=O)OC)C(=O)N1CCC[C@H]1c1nc2cc(-c3ccc(-c4ccc5[nH]c([C@@H]6CCCN6C(=O)[C@@H](NC(=O)OC)[C@@H](C)CC)nc5c4)cc3)ccc2[nH]1 [Compound 26] | < 1 nM
COC(=O)N[C@@H](C(=O)N1CCC[C@H]1c1nc2cc(CC=CCc3ccc4[nH]c([C@@H]5CCCN5C(=O)[C@H](NC(=O)OC)c5ccccc5)nc4c3)ccc2[nH]1)c1ccccc1 [Compound 28] | < 1 nM
COC(=O)N[C@@H](C(=O)N1CCC[C@H]1c1nc2cc(CCCCc3ccc4[nH]c([C@@H]5CCCN5C(=O)[C@H](NC(=O)OC)c5ccccc5)nc4c3)ccc2[nH]1)c1ccccc1 [Compound 29] | < 1 nM
COC(=O)N[C@@H](C(=O)N1CCC[C@H]1c1nc2cc(CC=Cc3ccc4nc([C@@H]5CCCN5C(=O)[C@H](NC(=O)OC)c5ccccc5)[nH]c4c3)ccc2[nH]1)c1ccccc1 [Compound 30] | < 1 nM
COC(=O)N[C@@H](C(=O)N1CCC[C@H]1c1nc2cc(CCCc3ccc4nc([C@@H]5CCCN5C(=O)[C@H](NC(=O)OC)c5ccccc5)[nH]c4c3)ccc2[nH]1)c1ccccc1 [Compound 31] | < 1 nM
COC(=O)N[C@@H](C(=O)N1CCC[C@H]1c1nc2cc(NC(=O)Nc3ccc4nc([C@@H]5CCCN5C(=O)[C@H](NC(=O)OC)c5ccccc5)[nH]c4c3)ccc2[nH]1)c1ccccc1 [Compound 32] | > 10 nM
COC(=O)N[C@H](C(=O)N1CCC[C@H]1c1nc2cc(C#Cc3ccc(-c4ccc5[nH]c([C@@H]6CCCN6C(=O)[C@@H](NC(=O)OC)C(C)C)nc5c4)cc3)ccc2[nH]1)C(C)C [Compound 33] | < 1 nM
COC(=O)N[C@H](C(=O)N1CCC[C@H]1c1nc2cc(CCc3ccc(-c4ccc5[nH]c([C@@H]6CCCN6C(=O)[C@@H](NC(=O)OC)C(C)C)nc5c4)cc3)ccc2[nH]1)C(C)C [Compound 34] | < 1 nM
COC(=O)N[C@@H](C(=O)N1CCC[C@H]1c1ncc(-c2ccc(-c3ccc4[nH]c([C@@H]5CCCN5C(=O)[C@H](NC(=O)OC)c5ccccc5)nc4c3)cc2)[nH]1)c1ccccc1 [Compound 35] | < 1 nM
COC(=O)N[C@@H](C(=O)N1CCC[C@H]1c1nc(-c2ccc(C#Cc3ccc4[nH]c([C@@H]5CCCN5C(=O)[C@H](NC(=O)OC)c5ccccc5)nc4c3)cc2)c[nH]1)c1ccccc1 [Compound 36] | < 1 nM

Compound | EC50
COC(=O)N[C@@H](C(=O)N1CCC[C@H]1c1ncc(-c2ccc(CCc3ccc4nc([C@@H]5CCCN5C(=O)[C@H](NC(=O)OC)c5ccccc5)[nH]c4c3)cc2)[nH]1)c1ccccc1 [Compound 37] | < 1 nM
COC(=O)N[C@@H](C(=O)N1CCC[C@H]1c1nc(-c2ccc(/C=C/c3ccc4[nH]c([C@@H]5CCCN5C(=O)[C@H](NC(=O)OC)c5ccccc5)nc4c3)cc2)c[nH]1)c1ccccc1 [Compound 38] | < 1 nM
COC(=O)N[C@@H](C(=O)N1CCC[C@H]1c1nc(-c2ccc(C#Cc3ccc4[nH]c([C@@H]5CCCN5C(=O)[C@H](NC(=O)OC)c5ccccc5)nc4c3)cc2)n[nH]1)c1ccccc1 [Compound 39] | < 1 nM
COC(=O)N[C@@H](C(=O)N1CCC[C@H]1c1nc(-c2ccc(CCc3ccc4[nH]c([C@@H]5CCCN5C(=O)[C@H](NC(=O)OC)c5ccccc5)nc4c3)cc2)n[nH]1)c1ccccc1 [Compound 40] | < 1 nM
COC(=O)N[C@@H](C(=O)N1CCC[C@H]1c1cc(-c2ccc(C#Cc3ccc4[nH]c([C@@H]5CCCN5C(=O)[C@H](NC(=O)OC)c5ccccc5)nc4c3)cc2)n[nH]1)c1ccccc1 [Compound 41] | < 1 nM
COC(=O)N[C@@H](C(=O)N1CCC[C@H]1c1cc(-c2ccc(CCc3ccc4[nH]c([C@@H]5CCCN5C(=O)[C@H](NC(=O)OC)c5ccccc5)nc4c3)cc2)n[nH]1)c1ccccc1 [Compound 42] | < 1 nM
COC(=O)N[C@H](C(=O)N1CCC[C@H]1c1ncc(-c2ccc(CCCc3ccc4[nH]c([C@@H]5CCCN5C(=O)[C@@H](NC(=O)OC)C(C)C)nc4c3)cc2)[nH]1)C(C)C [Compound 43] | < 1 nM
COC(=O)N[C@H](C(=O)N1CCC[C@H]1c1nc(-c2ccc(OCc3ccc4[nH]c([C@@H]5CCCN5C(=O)[C@@H](NC(=O)OC)C(C)C)nc4c3)cc2)c[nH]1)C(C)C [Compound 44] | < 1 nM
COC(=O)N[C@H](C(=O)N1CCC[C@H]1c1nc(-c2ccc(/C=C/c3ccc4[nH]c([C@@H]5CCCN5C(=O)[C@@H](NC(=O)OC)C(C)C)nc4c3)s2)c[nH]1)C(C)C [Compound 45] | < 1 nM
COC(=O)N[C@H](C(=O)N1CCC[C@H]1c1nc(-c2ccc(CCc3ccc4[nH]c([C@@H]5CCCN5C(=O)[C@@H](NC(=O)OC)C(C)C)nc4c3)s2)c[nH]1)C(C)C [Compound 46] | < 1 nM
COC(=O)N[C@H](C(=O)N1CCC[C@H]1c1nc(-c2ccc(CCCc3ccc4nc([C@@H]5CCCN5C(=O)[C@@H](NC(=O)OC)C(C)C)[nH]c4c3)s2)c[nH]1)C(C)C [Compound 47] | < 1 nM
COC(=O)N[C@H](C(=O)N1CCC[C@H]1c1nc(-c2ccc3cc(-c4ccc5[nH]c([C@@H]6CCCN6C(=O)[C@@H](NC(=O)OC)C(C)C)nc5c4)ccc3c2)c[nH]1)C(C)C [Compound 48] | < 1 nM
COC(=O)N[C@H](C(=O)N1CCC[C@H]1c1nc(-c2ccc3cc(-c4ccc5[nH]c([C@@H]6CCCN6C(=O)[C@@H](NC(=O)OC)[C@@H](C)OC)nc5c4)ccc3c2)c[nH]1)[C@@H](C)OC [Compound 49] | < 1 nM
COC(=O)N[C@H](C(=O)N1CCC[C@H]1c1nc(-c2ccc3cc(-c4ccc5[nH]c([C@@H]6CCCN6C(=O)[C@H](NC(=O)OC)c6ccccc6)nc5c4)ccc3c2)c[nH]1)[C@@H](C)OC [Compound 51] | < 1 nM
COC(=O)N[C@H](C(=O)N1CCC[C@H]1c1nc2cc(-c3ccc4cc(-c5c[nH]c([C@@H]6CCCN6C(=O)[C@@H](NC(=O)OC)[C@@H](C)OC)n5)ccc4c3)ccc2[nH]1)C(C)C [Compound 52] | < 1 nM
COC(=O)N[C@H](C(=O)N1CCC[C@H]1c1nc2cc(-c3ccc4cc(-c5c[nH]c([C@@H]6CCCN6C(=O)[C@@H](NC(=O)OC)[C@@H](C)OC)n5)ccc4c3)ccc2[nH]1)[C@@H](C)O [Compound 53] | < 1 nM

Source: US9060971B2, “Combination pharmaceutical agents as inhibitors of HCV replication” (Enanta Pharmaceuticals, Inc., priority 2010, dated 2015)
